Reference: US20250332223A1, “GHRH ANTAGONISTS FOR USE IN A METHOD OF TREATING SARCOIDOSIS” (University of Miami, priority 2019, published 2025)

Key:
[1] = test system: granuloma (PBMC challenged with microparticles); test: Cytokine production in in vitro granuloma from PBMC of sarcoidosis subjects, multiplex ELISA (Example 2); assay type: cell-based, human; settings: 1 microM MIA-602, 48 h, media
Description: In vitro granuloma was developed by challenging PBMC with microparticles as previously described (Zhang et al., Sci Rep 2020; 10: 7277).
To measure cytokines in media, supernatant aliquot samples were analyzed, thawed, and spun at 12,000 rpm for 10 min to separate the particulate material at the bottom. Fifty μl of undiluted media was plated from each sample onto a 96-well V-bottom plate (source plate) by manual pipetting according to predefined maps. The aliquots were wrapped in parafilm and kept in a humid chamber at 4° C. during the entire process, but not longer than 72 hr. Growth factors and their receptor's capture antibodies were reconstituted and diluted per manufacturer specification and 50 μl plated into each well of respective 96-well high-binding half-well plates, which were then sealed and incubated overnight at 4° C. The cytokine levels were measured using a procartaplex human th1/th2 cytokine panel 11 plex from Invitrogen, (epx110-10810-901).
Granuloma and PBMC were collected from five sarcoidosis subjects. The samples were grouped as control (not challenged), granuloma group challenged with a 10:1 treatment with microparticles but left untreated, challenged granuloma group treated with 1 microM MIA-602 in vitro, and challenged granuloma group treated with methyl prednisolone in vitro. Media were removed 48 h after of treatments. Cytokines were measured using an multiplex ELISA instrument.

[2] = test system: in vitro granuloma model (PBMCs challenged with microparticles); test: Pro- and anti-apoptotic protein levels in in vitro granuloma model (Example 3); assay type: cell-based, human; settings: 1 μM MIA-602, 48 h
Description: In vitro granuloma was developed by challenging PBMC with microparticles as previously described (Zhang et al., Sci Rep 2020; 10: 7277). (Zhang et al., Sci Rep 2020; 10: 7277), PBMCs were lysed in lysis buffer (Cell Signaling Technology, Beverly, MA) with protease inhibitor cocktail (Cell Signaling Technology, Beverly, MA) and sonicated three times for 2 seconds each with at least 1-min rest on ice between each 2-s pulse. Samples were centrifuged at 10,000×g for 5 min at 4° C. and the supernatant was collected. Protein concentration was determined by BCA protein assay kit from Cell Signaling Technology. The methodology is further described in .Zhang et al., Sci Rep 2020; 10: 7277. Thirty micrograms of total protein were mixed in a reducing sample buffer and used for mitochondrial apoptosis assay per the kit instruction. The assay was performed using a Bio-Rad kit (171-WAR3CK). The ability of a peptide of the disclosure, MIA-602, to influence respiration and apoptosis in granuloma cells was examined. The specific processes of apoptosis and mitochondrial dynamics in granuloma have not been fully elucidated. To test if MIA-602 had pro- or anti-apoptotic effects, the protein levels of pro-(active caspase-3) and anti-apoptotic factors (survivin, Bcl-xL/Bak dimer, and Mcl-1/Bak dimer) were measured in an in vitro granuloma model. […] Media were removed 48 h after treatment.

[3] = test system: sarcoidosis mice model; test: RNASeq transcriptomics of lung in sarcoidosis mice model (Example 7); assay type: in vivo; settings: granuloma mice, daily MIA-602 5 μg intraperitoneal vs saline
Description: RNA from mouse lungs were extracted using RNA Miniprep Plus Kit (Zymo Research). Briefly, whole lung was homogenized in TRI reagent and total RNA extraction was performed following the instructions provided by the manufacturer with additional DNase treatment. Quantity and quality of the samples were determined by NanoDrop spectrophotometer and Agilent Bioanalyzer 2100, respectively (Zhang et al., Front Immunol 2019; 10: 2888).
Preparation and sequencing of RNA libraries was performed. Briefly, total RNA quantity and quality were determined using the Agilent Bioanalyzer. At least 300 ng of total RNA was used as input for the KAPA RNA HyperPrep Kit with RiboErase (HMR) according to manufacturer's protocol to create ribosomal RNA-depleted sequencing libraries. Sequencing was performed on the Illumina NextSeq 500, generating ˜40 million single-end 75 base reads per sample. Sequencing data were processed with a bioinformatics pipeline including quality control, alignment to the […], and gene quantification. Count data was inputted into edgeR software for differential expression analysis. Counts were normalized using the trimmed mean of M-values (TMM) method to account for compositional difference between the libraries and paired differential expression analysis using a generalized linear model with sample as a blocking factor. […]

Substance: [PhAc-Ada^0-Tyr^1, D-Arg^2, Fpa5^6, Ala^8, Har^9, Tyr(Me)^10, His^11, Orn^12, Abu^15, His^20, Orn^21, Nle^27, D-Arg^28, Har^29]hGH-RH(1-29)NH2 [MIA-602]
- cytokine production of CCL2 [1]: significantly reduced
- cytokine production of CCL5 [1]: significantly reduced
- cytokine production of CXCL9 [1]: significantly reduced
- cytokine production of IFNα [1]: significantly reduced
- cytokine production of IL2 [1]: significantly reduced
- cytokine production of IL7 [1]: significantly reduced
- cytokine production of IL10 [1]: significantly reduced
- cytokine production of IL12 [1]: significantly reduced
- cytokine production of IL15 [1]: significantly reduced
- cytokine production of IL17A [1]: significantly reduced
- survivin levels ([2]; FIG. 3A): no statistical difference between groups
- active caspase 3 level ([2]; FIG. 3D): further increased
- level of Mcl-1/Bak dimer ([2]; reduced in untreated granuloma, FIG. 3B): restored
- BclxL/Bak Dimer levels ([2]; vs granuloma treated with saline, FIG. 3C): increased
- genes downregulated [3]: 293 genes
- genes upregulated [3]: 778 genes
